test system: P493-6 (myc "on") cells; experiment: Cell Proliferation Assay; type: cell-based; details: P493-6, 72 h, read-out: Cell prolif P493 72 h IC50, P493-6 cells, 72 h
Description: P493-6 (myc “on”) cells were maintained in growth media (RPMI-1640, 10% FBS, 2 mM glutamine, 100 units/ml Penicillin and 100 μg/ml streptomycin) at 37° C. with 5% CO2. For compound assay, P493-6 cells were plated in 96-well V-bottom plates on the day of compound addition in 50 μl of growth media at a cell density of 200,000 cells/ml (10,000 cells/well). Compounds were serially diluted in 100% DMSO at 200-times the final concentration. Compounds were diluted 100-fold into growth media and then 50 μl of this mixture was added to cell plates making the final concentration of DMSO 0.5%. Cells were incubated with compound for 72 hrs at 37° C. with 5% CO2 and analyzed for antiproliferative effects either by Cell Titer Glo (Promega) or FACS analysis using the Viacount (Millipore) kit on the Guava instrument.

In order of falling IC50:
1. CC(=O)NCc1cccc(CC(=O)Nc2nnc(CCCCc3ccc(NC(C)=O)nn3)s2)c1 [Compound 459]  570 nM
2. COc1cc(CC(=O)Nc2ccc(CCCCc3nnc(NC(=O)Cc4ccccc4)s3)nn2)ccc1F [Compound 537]  76 nM
3. NCc1cccc(CC(=O)Nc2nnc(CCCCc3nnc(NC(=O)Cc4ccccc4)s3)s2)c1 [Compound 437]  72 nM
4. O=C(Cc1ccccc1)Nc1ccc(CCCCc2nnc(NC(=O)Cc3cccc(OC(F)F)c3)s2)nn1 [Compound 664]  60 nM
5. NCc1ccc(CC(=O)Nc2nnc(CCCCc3ccc(NC(=O)Cc4ccccc4)nn3)s2)cc1 [Compound 407]  44 nM
6. CC(O)c1cccc(CC(=O)Nc2ccc(CCCCc3nnc(NC(=O)Cc4ccccc4)s3)nn2)c1 (centres unmarked) [Compound 611]  40 nM
7. CC(C(=O)Nc1ccc(CCCCc2nnc(NC(=O)Cc3ccccc3)s2)nn1)c1ccc(F)c(CN(C)C(=O)OC(C)(C)C)c1 (centres unmarked) [Compound 599]  39 nM
8. CCOc1ccc(CC(=O)Nc2nnc(CCCCc3ccc(NC(=O)Cc4ccccc4)nn3)s2)cc1OC [Compound 547]  31 nM
9. CCCOc1ccc(C(O)C(=O)Nc2nnc(CCCCc3ccc(NC(=O)Cc4ccccc4)nn3)s2)cc1 (centres unmarked) [Compound 558]  28 nM
10. CCOC(=O)NCc1cc(C(C)C(=O)Nc2nnc(CCCCc3ccc(NC(=O)Cc4ccccc4)nn3)s2)ccc1F (centres unmarked) [Compound 574]  28 nM
11. COC(=O)NC(C)c1cccc(CC(=O)Nc2ccc(CCCCc3nnc(NC(=O)Cc4ccccc4)s3)nn2)c1 (centres unmarked) [Compound 589]  25 nM
12. CC(NC(=O)OC(C)(C)C)c1cccc(CC(=O)Nc2ccc(CCCCc3nnc(NC(=O)C(C)c4ccccc4)s3)nn2)c1 (centres unmarked) [Compound 603]  23 nM
13. O=C(Cc1ccccc1)Nc1ccc(CCCCc2nnc(NC(=O)Cc3cccc(CNC(=O)C(F)(F)F)c3)s2)nn1 [Compound 458]  13 nM
14. CN(Cc1cccc(CC(=O)Nc2nnc(CCCCc3ccc(NC(=O)Cc4ccccc4)nn3)s2)c1)C(=O)OC(C)(C)C [Compound 396]  5 nM
15. O=C(Cc1ccccc1)Nc1ccc(CCCCc2nnc(NC(=O)Cc3cccc(CC(=O)N4CCC(F)(F)CC4)c3)s2)nn1 [Compound 474]  4 nM

same assay, conditions: P493-6, 72 h, read-out: Cell prolif P493 72 h IC50, P493 cells, 72 h

Going from `O=C(C[C@@H](O)c1ccccc1)Nc1nnc(CCSCCc2nnc(NC(=O)C[C@@H](O)c3ccccc3)s2)s1` [Compound 126] to `O=C(CCC(C(=O)O)c1ccccc1)Nc1nnc(CCSCCc2nnc(NC(=O)CCC(C(=O)O)c3ccccc3)s2)s1` (centres unmarked) [Compound 179], the IC50 rises from 12000 nM to > 50000 nM. The first is the more potent here.

First: O=C(Cc1cccc(Cn2cccn2)c1)Nc1nnc(CCCCc2nnc(NC(=O)Cc3cccc(Cn4cccn4)c3)s2)s1 [Compound 362]
Second: O=C(Cc1cccc(-n2ccnc2)c1)Nc1nnc(CCCCc2nnc(NC(=O)Cc3cccc(-n4ccnc4)c3)s2)s1 [Compound 363]
The IC50 of the first is lower: 54 nM for the first, > 20000 nM for the second. The first is the more potent here.

`O=CO[C@@H](C(=O)Nc1nnc(CCCCc2nnc(NC(=O)[C@H](OC=O)c3ccccc3)s2)s1)c1ccccc1` [Compound 68] and `CO[C@@H](C(=O)Nc1nnc(CCCCc2nnc(NC(=O)[C@H](OC)c3ccccc3)s2)s1)c1ccccc1` [Compound 147] are within 1.5-fold of each other in IC50: 340 nM for the first, 370 nM for the second.

Compared with `CC(CCc1nnc(NC(=O)Cc2ccccc2)s1)CCc1nnc(NC(=O)Cc2ccccc2)s1` [Compound 9], `O=C(Cc1ccccc1)Nc1nnc(CCSCc2nnc(NC(=O)Cc3ccccc3)s2)s1` [Compound 199] is lower in IC50: > 50000 nM for the first, 170 nM for the second. The second is the more potent here.

Compared with `NS(=O)(=O)c1ccc(CC(=O)Nc2nnc(CCSCCc3nnc(NC(=O)Cc4ccc(S(N)(=O)=O)cc4)s3)s2)cc1` [Compound 217], `CN(C)c1ccc(CC(=O)Nc2nnc(CCSCCc3nnc(NC(=O)Cc4ccc(N(C)C)cc4)s3)s2)cc1` [Compound 162] is lower in IC50: > 50000 nM for the first, 150 nM for the second. The second is the more potent here.

`C=CCCC(=O)Nc1nnc(CCSCCc2nnc(NC(=O)CCC=C)s2)s1` [Compound 18] and `COCCC(=O)Nc1nnc(CCCCc2nnc(NC(=O)CCOC)s2)s1` [Compound 100] are within 1.5-fold of each other in IC50: 8200 nM for the first, 9000 nM for the second.

First: O=C(CCN1CCOCC1)OC(C(=O)Nc1nnc(CCCCc2nnc(NC(=O)C(OC(=O)CCN3CCOCC3)c3cccc(Cl)c3)s2)s1)c1cccc(Cl)c1 (centres unmarked) [Compound 332]
Second: O=C(Cc1cccc(OCCN2CCOCC2)c1)Nc1nnc(CCSCCc2nnc(NC(=O)Cc3cccc(OCCN4CCOCC4)c3)s2)s1 [Compound 240]
The IC50 of the first is 15-fold lower: 87 nM for the first, 1300 nM for the second. The first is the more potent here.

`O=C(Nc1nnc(CCSCCc2nnc(NC(=O)C3Cc4cc(Br)ccc4O3)s2)s1)C1Cc2cc(Br)ccc2O1` (centres unmarked) [Compound 118] and `O=C(Nc1nnc(CCCCc2nnc(NC(=O)C3Cc4cc(Cl)ccc4O3)s2)s1)C1Cc2cc(Cl)ccc2O1` (centres unmarked) [Compound 120] are within 1.5-fold of each other in IC50: 36000 nM for the first, 38000 nM for the second.

First: O=C(Cc1cccs1)Nc1nnc(CCCCc2nnc(NC(=O)Cc3cccs3)s2)s1 [Compound 87]
Second: O=C(Cc1ccco1)Nc1nnc(CCCCc2nnc(NC(=O)Cc3ccco3)s2)s1 [Compound 86]
The IC50 of the first is 8.7-fold lower: 60 nM for the first, 520 nM for the second. The first is the more potent here.

First: O=C(Nc1nnc(CCCCc2nnc(NC(=O)C(CO)c3cccs3)s2)s1)C(CO)c1cccs1 (centres unmarked) [Compound 190]
Second: COc1cccc(C(CO)C(=O)Nc2nnc(CCCCc3nnc(NC(=O)C(CO)c4cccc(OC)c4)s3)s2)c1 (centres unmarked) [Compound 257]
The IC50 of the first is 6.7-fold higher: 490 nM for the first, 73 nM for the second. The second is the more potent here.

`O=C(Nc1nnc(CCCCc2nnc(NC(=O)C3CC(O)c4ccccc43)s2)s1)C1CC(O)c2ccccc21` (centres unmarked) [Compound 94] and `O=C(Nc1nnc(CCCCc2nnc(NC(=O)C(O)c3ccccc3)s2)s1)C(O)c1ccccc1` (centres unmarked) [Compound 174] are within 1.5-fold of each other in IC50: 470 nM for the first, 440 nM for the second.

First: O=C(Cc1ccccc1)Nc1nnc(CCCCc2nnc(NC(=O)Cc3ccc(F)c(O)c3F)s2)s1 [Compound 346]
Second: O=C(Cc1ccccc1)Nc1nnc(CCCCc2nnc(NC(=O)Cc3c(Cl)ccc(O)c3F)s2)s1 [Compound 345]
The IC50 of the first is 2.8-fold lower: 87 nM for the first, 240 nM for the second.

First: Cc1cc(C)n(CC(=O)Nc2nnc(CCSCCc3nnc(NC(=O)Cn4nc(C)cc4C)s3)s2)n1 [Compound 97]
Second: CC(=O)OCC(=O)Nc1nnc(CCSCCc2nnc(NC(=O)Cc3ccccc3)s2)s1 [Compound 26]
The IC50 of the first is 24-fold higher: 17000 nM for the first, 700 nM for the second. The second is the more potent here.

Going from `O=C(Cc1cccc(OCCO)c1)Nc1nnc(CCSCCc2nnc(NC(=O)Cc3cccc(OCCO)c3)s2)s1` [Compound 236] to `O=C(Cc1cccc(F)c1)Nc1nnc(CCCCc2nnc(NC(=O)Cc3cccc(F)c3)s2)s1` [Compound 273], the IC50 falls from 1400 nM to 70 nM (20-fold).

First: O=C(Nc1nnc(CCCCc2nnc(NC(=O)[C@H](O)Cc3ccccc3)s2)s1)[C@H](O)Cc1ccccc1 [Compound 169]
Second: O=C(Nc1nnc(CCCc2nnc(NC(=O)C(O)Cc3ccccc3)s2)s1)C(O)Cc1ccccc1 (centres unmarked) [Compound 170]
The IC50 of the first is 2.7-fold lower: 3400 nM for the first, 9300 nM for the second. The first is the more potent here.

`Cc1ccccc1C(C)C(=O)Nc1nnc(CCSCCc2nnc(NC(=O)C(C)c3ccccc3C)s2)s1` (centres unmarked) [Compound 262] and `CC(C(=O)Nc1nnc(CCSCCc2nnc(NC(=O)C(C)c3ccccc3Cl)s2)s1)c1ccccc1Cl` (centres unmarked) [Compound 261] are within 1.5-fold of each other in IC50: 3100 nM for the first, 2600 nM for the second.

First: O=C(Cc1ccccc1)Nc1nnc(CCSCCc2nnc(NC(=O)C(c3ccccc3)N3CCNCC3)s2)s1 (centres unmarked) [Compound 78]
Second: O=C(Cc1ccccc1)Nc1nnc(CCCCc2nnc(NC(=O)C(O)(CO)c3ccccc3)s2)s1 (centres unmarked) [Compound 280]
The IC50 of the first is 43-fold higher: 10000 nM for the first, 230 nM for the second. The second is the more potent here.

Compared with `CC(C)[C@H](N)C(=O)OCC(C(=O)Nc1nnc(CCCCc2nnc(NC(=O)C(COC(=O)[C@@H](N)C(C)C)c3ccccc3)s2)s1)c1ccccc1` (some centres unmarked) [Compound 291], `C=CCC(C(=O)Nc1nnc(CCCCc2nnc(NC(=O)C(CC=C)c3ccccc3)s2)s1)c1ccccc1` (centres unmarked) [Compound 209] is 12-fold higher in IC50: 1800 nM for the first, 22000 nM for the second. The first is the more potent here.

Going from `COc1ccc(CC(=O)Nc2nnc(CCSCCc3nnc(NC(=O)Cc4ccc(OC)c(OC)c4)s3)s2)cc1OC` [Compound 157] to `COc1ccccc1C(CO)C(=O)Nc1nnc(CCSCCc2nnc(NC(=O)C(CO)c3ccccc3OC)s2)s1` (centres unmarked) [Compound 245], the IC50 rises from 180 nM to 2500 nM (14-fold). The first is the more potent here.

Compared with `CCCC(=O)OCN(C(=O)Cc1ccccc1)c1nnc(CCSCCc2nnc(NC(=O)Cc3ccccc3)s2)s1` [Compound 7], `COC(=O)C(C(=O)Nc1nnc(CCSCCc2nnc(NC(=O)C(C(=O)OC)c3ccccc3)s2)s1)c1ccccc1` (centres unmarked) [Compound 234] is 2.5-fold higher in IC50: 1000 nM for the first, 2500 nM for the second.

First: O=C(Nc1nnc(CCCCc2nnc(NC(=O)C(F)(F)F)s2)s1)C(F)(F)F [Compound 45]
Second: COC(=O)Nc1nnc(CCCCc2nnc(NC(=O)Cc3ccccc3)s2)s1 [Compound 387]
The IC50 of the first is higher: > 50000 nM for the first, 2300 nM for the second. The second is the more potent here.

First: O=C(Cc1ccccc1)Nc1ccc(CCCCc2nnc(NC(=O)NCc3ccccc3)s2)nn1 [Compound 352]
Second: Nc1ccc(CCCCc2nnc(NC(=O)Cc3ccccc3)s2)nn1 [Compound 348, N-(5-(4-(6-aminopyridazin-3-yl)butyl)-1,3,4-thiadiazol-2-yl)-2-phenylacetamide]
The IC50 of the first is 13-fold lower: 130 nM for the first, 1700 nM for the second. The first is the more potent here.

Going from `O=C(Cc1ccccc1)Nc1nnc(CCCCc2nnc(NC(=O)Cc3cccc(OCCN4CCOCC4)c3)s2)s1` [Compound 390] to `O=C(Cc1ccccc1)Nc1nnc(CCCCc2nnc(NC(=O)[C@H]3CCCC[C@@H]3C(=O)c3ccccc3)s2)s1` [Compound 290], the IC50 rises from 160 nM to 790 nM (4.9-fold).

`O=C(Nc1nnc(CCCCc2nnc(NC(=O)C(O)(CO)c3ccccc3)s2)s1)C(O)(CO)c1ccccc1` (centres unmarked) [Compound 278] showed an IC50 of 160 nM.

same assay, conditions: P493-6, read-out: Cell prolif P493 72 h IC50; P493 cells, 72 h

In order of rising IC50:
1. O=C(Cc1ccccc1)Nc1nnc(CCCCc2nnc(NC(=O)Oc3ccccc3)s2)s1 [Compound 371]  5200 nM
2. CC(=O)Nc1nnc(CCSCCc2nnc(NC(C)=O)s2)s1 [Compound 13]  12000 nM

same assay, conditions: read-out: Cell prolif P493 72 h IC50; P493-6 cells, 72 h

Work on `CCCC(=O)OC(C(=O)Nc1nnc(CCCCc2ccc(NC(=O)Cc3ccccc3)nn2)s1)c1cccc(Cl)c1` (centres unmarked) [Compound 439] yielded an IC50 of 56 nM.
